Values joined by “and” are separate entries in the source; they are usually repeats but may differ in a detail not shown here. Equal entries are not always repeated. Structures can show the parent of a compound that is named as a salt.
How the values were obtained:
DYRK1A = molecular target: T1, DYRK1A (Homo sapiens, UniProt Q13627); assay: KINOMEscan DYRK1A binding assay (DiscoverX), Kd determination; conditions: eleven serial three fold dilutions, highest concentration 60 μM, several values in a cell = repeat determinations
T1 construct: purchased DiscoverX
Method: Compounds were tested for DYRK1A binding activity at DiscoverX. DiscoverX uses proprietary KINOMEscan® Assay (Fabian et al., “A Small Molecule-kinase Interaction Map for Clinical Kinase Inhibitors,” Nat. Biotechnol. 23(3):329-336 (2005), which is hereby incorporated by reference in its entirety). Compounds were screened for DYRK1A activity at a single concentration of 3 μM in duplicates. Similarly, the dissociation constant Kd of the hit compounds from the initial screening was determined at DiscoverX using their proprietary KINOMEscan® Assay. Kd values are determined using eleven serial three fold dilutions with the highest concentration of 60 μM.

DYRK1/DYRK1A = molecular target: T2, DYRK1/DYRK1A (Homo sapiens, UniProt Q13627); assay: DYRK1/DYRK1A IC50 assay (Reaction Biology Corp.); format: biochemical; conditions: DYRK1/DYRK1A assay from Reaction Biology Corp.
T2 construct: purchased Reaction Biology Corp

Row | SMILES | Kd (DYRK1A) | IC50 (DYRK1/DYRK1A)
1 | CC(Nc1cncc(-c2ccc3[nH]c(=O)[nH]c3c2)c1)c1ccccc1 (stereo not shown) [Compound 30j, 5-(5-((1-Phenylethyl)amino)pyridin-3-yl)-1H-benzo[d]imidazol-2(3H)-one] | 0.71 nM and 1.1 nM | 
2 | O=c1[nH]c2ccc(-c3cncc(NCc4ccccc4Cl)c3)cc2[nH]1 [Compound 30c, 5-(5-((2-Chlorobenzyl)amino)pyridin-3-yl)-1H-benzo[d]imidazol-2(3H)-one] | 1.3 nM | 
3 | NC(=O)c1ccc(CNc2cncc(-c3ccc4[nH]c(=O)[nH]c4c3)c2)cc1 [Compound 33b, 4-(((5-(2-Oxo-2,3-dihydro-1H-benzo[d]imidazol-5-yl)pyridin-3-yl)amino)methyl)benzamide] | 14 nM | 
4 | O=c1[nH]c2ccc(-c3cncc(NCc4ccccc4)c3)cc2[nH]1 [Compound 13a, 5-(5-(Benzylamino)pyridin-3-yl)-1H-benzo[d]imidazol-2(3H)-one] | 2.3 nM and 2.9 nM and 1.1 nM | 
5 | COc1ccc(NCc2cncc(-c3ccc4[nH]c(=O)[nH]c4c3)c2)cc1 [Compound 52i, 5-(5-(((4-Methoxyphenyl)amino)methyl)pyridin-3-yl)-1H-benzo[d]imidazol-2(3H)-one] |  | 2.2 nM
6 | O=c1[nH]c2ccc(-c3cncc(NCc4ccccn4)c3)cc2[nH]1 [Compound 31a, 5-(5-((Pyridin-2-ylmethyl)amino)pyridin-3-yl)-1H-benzo[d]imidazol-2(3H)-one] | 1.2 nM | 
7 | COc1cccc(NCc2cncc(-c3ccc4[nH]c(=O)[nH]c4c3)c2)c1 [Compound 52h, 5-(5-(((3-Methoxyphenyl)amino)methyl)pyridin-3-yl)-1H-benzo[d]imidazol-2(3H)-one] |  | 2.26 nM
8 | COCCOc1ccc(-n2c(=O)[nH]c3ccc(-c4cncc(NCc5ccccc5)c4)cc32)cc1 [Compound 61k, 6-(5-(Benzylamino)pyridin-3-yl)-1-(4-(2-methoxyethoxy)phenyl)-1H-benzo[d]imidazol-2(3H)-one] |  | 38 nM
9 | O=c1[nH]c2ccc(-c3ccc(NCc4ccc(F)cc4)cn3)cc2[nH]1 [Compound 11c, 5-(5-((4-Fluorobenzyl)amino)pyridin-2-yl)-1H-benzo[d]imidazol-2(3H)-one] | 6000 nM | 
10 | O=c1[nH]c2ccc(-c3cncc(NCc4ccccc4)c3)cc2n1C1CC1 [Compound 61c, 6-(5-(Benzylamino)pyridin-3-yl)-1-cyclopropyl-1H-benzo[d]imidazol-2(3H)-one] |  | 3.25 nM
11 | O=c1[nH]c2ccc(-c3cncc(NCc4ccc5ccccc5c4)c3)cc2[nH]1 [Compound 31e, 5-(5-((Naphthalen-2-ylmethyl)amino)pyridin-3-yl)-1H-benzo[d]imidazol-2(3H)-one] | 100 nM | 
12 | NC(=O)c1cccc(CNc2cncc(-c3ccc4[nH]c(=O)[nH]c4c3)c2)c1 [Compound 33a, 3-(((5-(2-Oxo-2,3-dihydro-1H-benzo[d]imidazol-5-yl)pyridin-3-yl)amino)methyl)benzamide] | 9.9 nM | 
13 | O=C1Cc2cc(-c3cncc(NCc4ccccc4)c3)ccc2N1 [Compound 13e, 5-(5-(Benzylamino)pyridin-3-yl)indolin-2-one] | 1.3 nM and 1.9 nM | 
14 | O=c1[nH]c2ccc(-c3cnccc3NCc3ccccc3)cc2[nH]1 [Compound 74c, 5-(4-(Benzylamino)pyridin-3-yl)-1H-benzo[d]imidazol-2(3H)-one] |  | 1690 nM
15 | O=c1[nH]c2ccc(-c3cncc(NCc4cc[nH]n4)c3)cc2[nH]1 [Compound 49e, 5-(5-(((1H-Pyrazol-3-yl)methyl)amino)pyridin-3-yl)-1H-benzo[d]imidazol-2(3H)-one] |  | 3.27 nM
16 | CCn1c(=O)[nH]c2ccc(-c3cncc(NCc4ccccc4)c3)cc21 [Compound 61a, 6-(5-(Benzylamino)pyridin-3-yl)-1-ethyl-1H-benzo[d]imidazol-2(3H)-one] |  | 1.41 nM
17 | O=c1[nH]c2ccc(-c3cncc(NCc4ccccc4)c3)cc2n1-c1ccccc1 [Compound 61e, 6-(5-(Benzylamino)pyridin-3-yl)-1-phenyl-1H-benzo[d]imidazol-2(3H)-one] |  | 3.8 nM
18 | O=c1[nH]c2ccc(-c3cncc(CNc4cccc(F)c4)c3)cc2[nH]1 [Compound 52b, 5-(5-(((3-Fluorophenyl)amino)methyl)pyridin-3-yl)-1H-benzo[d]imidazol-2(3H)-one] |  | 1.31 nM
19 | O=c1[nH]c2ccc(-c3cc(NCc4ccccc4)c[n+]([O-])c3)cc2[nH]1 [Compound 69b, 3-(Benzylamino)-5-(2-oxo-2,3-dihydro-1H-benzo[d]imidazol-5-yl)pyridine 1-oxide] |  | 45.2 nM
20 | CC(C)(C)OC(=O)NCCOc1cccc(-n2c(=O)[nH]c3ccc(-c4cncc(NCc5ccccc5)c4)cc32)c1 [Compound 611, tert-Butyl (2-(3-(6-(5-(benzylamino)pyridin-3-yl)-2-oxo-2,3-dihydro-1H-benzo[d]imidazol-1-yl)phenoxy)ethyl)carbamate] |  | 103 nM

Row | SMILES | Kd (DYRK1A) | IC50 (DYRK1/DYRK1A)
21 | CC(C)n1c(=O)[nH]c2ccc(-c3cncc(NCc4ccccc4)c3)cc21 [Compound 61b, 6-(5-(Benzylamino)pyridin-3-yl)-1-isopropyl-1H-benzo[d]imidazol-2(3H)-one] |  | 13.8 nM
22 | O=c1[nH]c2ccc(-c3cncc(NCc4ncc[nH]4)c3)cc2[nH]1 [Compound 49c, 5-(5-(((1H-Imidazol-2-yl)methyl)amino)pyridin-3-yl)-1H-benzo[d]imidazol-2(3H)-one] |  | 4.91 nM
23 | COc1ccccc1NCc1cncc(-c2ccc3[nH]c(=O)[nH]c3c2)c1 [Compound 52g, 5-(5-(((2-Methoxyphenyl)amino)methyl)pyridin-3-yl)-1H-benzo[d]imidazol-2(3H)-one] |  | 2.72 nM
24 | NCCOc1cccc(-n2c(=O)[nH]c3ccc(-c4cncc(NCc5ccccc5)c4)cc32)c1 [Compound 61n, 1-(3-(2-Aminoethoxy)phenyl)-6-(5-(benzylamino)pyridin-3-yl)-1H-benzo[d]imidazol-2(3H)-one hydrochloride] |  | 7.12 nM
25 | O=c1[nH]c2ccc(-c3cncc(NCc4ccccc4)c3)cc2n1-c1cccnc1 [Compound 61g, 6-(5-(Benzylamino)pyridin-3-yl)-1-(pyridin-3-yl)-1H-benzo[d]imidazol-2(3H)-one] |  | 6.47 nM
26 | C[C@H](Nc1cncc(-c2ccc3[nH]c(=O)n(C)c3c2)c1)c1ccccc1 [Compound 69c] |  | 0.286 nM
27 | Cn1c(=O)[nH]c2ccc(-c3cc(NCc4ccccc4)c[n+]([O-])c3)cc21 [Compound 69a, 3-(Benzylamino)-5-(3-methyl-2-oxo-2,3-dihydro-1H-benzo[d]imidazol-5-yl)pyridine 1-oxide] |  | 99.9 nM
28 | CC(C)(C)OC(=O)NCCOCCOc1cccc(-n2c(=O)[nH]c3ccc(-c4cncc(NCc5ccccc5)c4)cc32)c1 [Compound 61m, tert-Butyl (2-(2-(3-(6-(5-(benzylamino)pyridin-3-yl)-2-oxo-2,3-dihydro-1H-benzo[d]imidazol-1-yl)phenoxy)ethoxy)ethyl)carbamate] |  | 42.8 nM
29 | O=c1[nH]c2ccc(-c3cncc(CNc4ccccc4Cl)c3)cc2[nH]1 [Compound 52d, 5-(5-(((2-Chlorophenyl)amino)methyl)pyridin-3-yl)-1H-benzo[d]imidazol-2(3H)-one] |  | 5.05 nM
30 | COCCOc1cccc(-n2c(=O)[nH]c3ccc(-c4cncc(NCc5ccccc5)c4)cc32)c1 [Compound 61j, 6-(5-(Benzylamino)pyridin-3-yl)-1-(3-(2-methoxyethoxy)phenyl)-1H-benzo[d]imidazol-2(3H)-one] |  | 3.47 nM
31 | O=c1[nH]c2ccc(-c3cncc(NCc4cccs4)c3)cc2[nH]1 [Compound 49b, 5-(5-((Thiophen-2-ylmethyl)amino)pyridin-3-yl)-1H-benzo[d]imidazol-2(3H)-one] |  | 0.48 nM
32 | O=c1[nH]c2ccc(-c3cncc(NCc4ccccc4)c3)cc2n1-c1ccccn1 [Compound 61f, 6-(5-(Benzylamino)pyridin-3-yl)-1-(pyridin-2-yl)-1H-benzo[d]imidazol-2(3H)-one] |  | 0.52 nM
33 | Cc1ncc(NCc2ccccc2)cc1-c1ccc2[nH]c(=O)[nH]c2c1 [Compound 74a, 5-(5-(Benzylamino)-2-methylpyridin-3-yl)-1H-benzo[d]imidazol-2(3H)-one] |  | 2100 nM
34 | NCCOCCOc1cccc(-n2c(=O)[nH]c3ccc(-c4cncc(NCc5ccccc5)c4)cc32)c1 [Compound 61o, 1-(3-(2-(2-Aminoethoxy)ethoxy)phenyl)-6-(5-(benzylamino)pyridin-3-yl)-1H-benzo[d]imidazol-2(3H)-one hydrochloride] |  | 3.9 nM
35 | O=c1[nH]c2ccc(-c3cncc(NCc4ccccc4)c3)cc2n1C1CCCC1 [Compound 61d, 6-(5-(Benzylamino)pyridin-3-yl)-1-cyclopentyl-1H-benzo[d]imidazol-2(3H)-one] |  | 24 nM
36 | O=c1[nH]c2ccc(-c3cncc(NCc4ncco4)c3)cc2[nH]1 [Compound 49f, 5-(5-((Oxazol-2-ylmethyl)amino)pyridin-3-yl)-1H-benzo[d]imidazol-2(3H)-one] |  | 4.03 nM
37 | O=c1[nH]c2ccc(-c3ccncc3NCc3ccccc3)cc2[nH]1 [Compound 74b, 5-(3-(Benzylamino)pyridin-4-yl)-1H-benzo[d]imidazol-2(3H)-one] |  | 8580 nM
38 | O=c1[nH]c2ccc(-c3cncc(CNc4ccc(F)cc4)c3)cc2[nH]1 [Compound 52c, 5-(5-(((4-Fluorophenyl)amino)methyl)pyridin-3-yl)-1H-benzo[d]imidazol-2(3H)-one] |  | 6.11 nM
39 | O=c1[nH]c2ccc(-c3cncc(CNc4ccccc4F)c3)cc2[nH]1 [Compound 52a, 5-(5-(((2-Fluorophenyl)amino)methyl)pyridin-3-yl)-1H-benzo[d]imidazol-2(3H)-one] |  | 3.67 nM
40 | O=c1[nH]c2ccc(-c3cncc(NCc4ccco4)c3)cc2[nH]1 [Compound 49a, 5-(5-((Furan-2-ylmethyl)amino)pyridin-3-yl)-1H-benzo[d]imidazol-2(3H)-one] |  | 1.74 nM
